Reference: US12622898B2, “Methods and compositions for improving bone marrow hematopoietic functions” (SUN YAT-SEN UNIVERSITY, priority 2019, dated 2026)
“Also recorded” adds a separate entry of the source.

Tests used:
[1] = tested on: human cord blood HSCs (CB-HSCs, CD34+CD38-CD45RA-CD49f+); test: Ex vivo culture of human cord blood cells with ABC294640; format: cell-based; conditions: 2-week culture, ABC294640 1 μM; vs vehicle
Experimental: For phenotype analysis of human cord blood HSCs (CB-HSCs, CD34^+CD38-CD45RA-CD49f^+), cell surface phenotyping, anti-hCD34 (581), anti-hCD38 (HIT2), anti-hCD45RA (HI100) and anti-hCD49f (GOH3) (100 ng antibody cocktail per million cord blood cells, Biolegend) were used. Human cord blood cells (2×10^5) were cultured in 96-round-well plate with Stem Span media (9650, Stem Cell Technologies) supplemented with SCF (10 ng per ml), TPO (20 ng per ml) for two weeks. The culture media was supplemented with vehicle or ABC294640 (1 μM, Target Molecule Corp […]). After culture for two weeks, the culture product was transplanted into irradiated (2Gy) 6-12 weeks old NSG mice via the tail. No mice were excluded unless they died during the 16-week-observations. All animal experiments were performed according to protocols approved by the institutional animal care and use committee.

[2] = tested on: donor derived HSPCs, white blood cells and platelets; test: ABC294640 treatment of recipients after bone marrow transplantation: hematopoietic reconstitution; format: in vivo, mouse; conditions: vs vehicle
Text: (§1) B6N.129S6-Sphk1tm1Rlp/J (Sphk1Δ/Δ) and B6N.129S6-Sphk2tm1Rlp/J (Sphk2Δ/Δ) mice were obtained from the Jackson Laboratory. To achieve tissue-specific deletion of Sphk2, the Sphk2^flox/flox mice were crossed with Vav-Cre transgenic mice. Sphk2^flox/flox mice was constructed by Cyagen Biosciences Inc. Briefly, linearized targeting vector was electroporated into embryonic stem (ES) cells and positive clones were identified by Southern blotting and injected into C57BL/6 blastocysts followed by chimera production to obtain germline transmission. The Frt-flanked Neo cassette was subsequently removed by mating with Flpe mice. 2-month-old mice or more than 20-month old for aging we used as indicated. 5 FU (Sigma-Aldrich) was injected once or once a week for survival curve as indicated in the tail vein at 150 μg/g body weight. Sphk2 inhibitor ABC294640 (Target Molecule Corp T6750) and PDK inhibitor Sodium dichloroacetate (DCA) (Selleck Chemicals S8615) were intraperitoneal injected at 25 mg/kg. […] Animals were randomly included in the experiments according to genotyping results as a mix of male and female. All animal experiments were performed according to protocols approved by the institutional animal care and use committee.
2.0×10^5 CD45.2 bone marrow cells and 2.0×10^5 CD45.1 rescue bone marrow cells were transplanted into lethally irradiated CD45.1 recipients. Adult recipient mice (CD45.1) were irradiated with an Orthovoltage X-ray source delivering approximately in two equal doses of 4.5 Gy at least 3 hours apart. For secondary or tertiary transplantation, bone marrow cells from each recipient were injected into one or two irradiated new recipient mouse (1×10^6 per recipient, depending on the number of recipients) during each round of transplantation.
1×10^6 bone marrow cells were transplanted into lethally irradiated recipients, and the recipients were subjected to ABC294640 treatment or vehicle control (FIG. 67).

[3] = Survival of C57BL/6J mice after serial 5 FU challenges with ABC294640 treatment; format: in vivo, mouse; conditions: serial 5 FU every 7 days, ABC294640 every other day; vs control
Text: B6N.129S6-Sphk1tm1Rlp/J (Sphk1Δ/Δ) and B6N.129S6-Sphk2tm1Rlp/J (Sphk2Δ/Δ) mice were obtained from the Jackson Laboratory. To achieve tissue-specific deletion of Sphk2, the Sphk2^flox/flox mice were crossed with Vav-Cre transgenic mice. Sphk2^flox/flox mice was constructed by Cyagen Biosciences Inc. Briefly, linearized targeting vector was electroporated into embryonic stem (ES) cells and positive clones were identified by Southern blotting and injected into C57BL/6 blastocysts followed by chimera production to obtain germline transmission. The Frt-flanked Neo cassette was subsequently removed by mating with Flpe mice. 2-month-old mice or more than 20-month old for aging we used as indicated. 5 FU (Sigma-Aldrich) was injected once or once a week for survival curve as indicated in the tail vein at 150 μg/g body weight. Sphk2 inhibitor ABC294640 (Target Molecule Corp T6750) and PDK inhibitor Sodium dichloroacetate (DCA) (Selleck Chemicals S8615) were intraperitoneal injected at 25 mg/kg. […]
Data are expressed as means±s.d. For all experiments except determination of survival, data were analyzed by Student's t test, and differences were considered statistically significant if P<0.05. The survival of the two groups were analyzed using a log-rank test, and differences were considered statistically significant if P<0.05. […]

[4] = tested on: HSPCs (LT-HSC, ST-HSC, MPP and CD150HSC) in the bone marrow; test: ABC294640 treatment of C57BL/6J mice during homeostasis: HSPC numbers and cell cycle; format: in vivo, mouse; conditions: for HSC pool / HSC quiescence (cell cycle analysis of CD150 HSCs): vs vehicle
Text: as §1
(§2) For phenotype analysis and hematopoietic purification, hematopoietic cells were harvested from bone marrow (femur and tibia). For cell surface phenotyping, a lineage cocktail (Lin, phycoerythrin (PE)-Cy5) was used, including anti-CD3 (145-2C11), anti-CD4 (RM4-5), anti-CD8 (53-6.7), anti-Mac-1 (M1/70), anti-Gr1 (RB6-8C5), anti-B220 (RA3-6B2), anti-IgM (11/41) and anti-TER119 (TER-119) (100 ng antibody cocktail per million bone marrow cells, Biolegend). Monoclonal antibodies to SCA1 (D7, Biolegend), c-KIT (2B8, Biolegend), FLK2 (A2F10, Biolegend), CD34 (RAM34, eBioscience), CD48 (HM48-1, Biolegend), CD41 (MWReg30, eBioscience), CD150 (TC15-12F12.2, BioLegend), CD16/32 (93, Biolegend), IL-7R (A7R34, Biolegend) (all used as 50 ng per million bone marrow cells) were also used where indicated.
For cell cycle, DNA damage, the cells were fixed, permeabilized and stained by anti-Ki67 (16A8, Biolegend).
(§3) Cell sorting and analysis were performed using an Attune NxT analyzer (Thermo Fisher Scientific) or InFlux Cell Sorter (BD Biosciences). Data analysis was performed using FlowJo software.

[5] = tested on: white blood cells and platelets; test: Recovery of blood cells after 5-fluorouracil or radiation-induced injury; format: in vivo, mouse
[6] = tested on: HSPCs (LT-HSC, ST-HSC, MPP, CD150HSC); test: ABC294640 treatment after 5 FU chemotherapeutic stress: HSPC numbers and ROS; format: in vivo, mouse; conditions: vs vehicle
Text: as §1, §2
The cells were further incubated with 0.1 ug/uL DAPI (1306, Thermo Scientific) for 30 min at room temperature. For apoptosis and ROS analysis, the cells were stained by AnnexinV or DCFDA (D6883, Sigma-Aldrich).
as §3

[7] = one month after transplantation
[8] = ABC294640 25 mg/kg intraperitoneal vs vehicle, bone marrow
[9] = after stimulation of the chemotherapeutic drug 5-fluorouracil
[10] = after the stimulation of radiation

O=C(NCc1ccncc1)C12CC3CC(C1)CC(c1ccc(Cl)cc1)(C3)C2 [ABC294640, 3-(4-chloro-phenyl)-adamantane-1-carboxylic acid (pyridin-4-ylmethyl)-amide]
increase of human HSC numbers [1]: 1.4 fold | increase of platelets in PB ([2]; 28 days after transplantation): 2.6 fold | increase of white blood cells in PB ([2]; 28 days after transplantation): 1.9 fold | increase of donor derived CD150 HSC [2, 7]: 2.2 fold | increase of donor derived LT-HSC [2, 7]: 2.2 fold | increase of donor derived ST-HSC [2, 7]: 1.6 fold | survival [3]: significantly prolonged; also recorded: notably increased survival | increase of CD150 HSC number [4, 8]: 1.7 fold | increase of LT-HSC number [4, 8]: 2.1 fold | HSC pool [4]: expanded HSPC pool | HSC quiescence (cell cycle analysis of CD150 HSCs) [4]: increased quiescence | HSC pool ([4]; listed as ABC294460): expands HSC pool | HSC quiescence (cell cycle analysis of CD150 HSCs) ([4]; listed as ABC294460): promotes HSC quiescence | recovery of platelets [5, 9]: significantly accelerated | recovery of white blood cells [5, 9]: significantly accelerated | recovery of platelets [5, 10]: significantly accelerated | recovery of white blood cells [5, 10]: significantly accelerated | ROS level in CD150 HSCs ([6]; day 14 after 5 FU treatment): markedly reduced | increase of CD150 HSC number ([6]; day 14 post 5 FU): 2.2 fold | increase of LT-HSC number ([6]; day 14 post 5 FU): 2.2 fold | increase of ST-HSC number ([6]; day 14 post 5 FU): 1.6 fold
